Assay results as given in US10329249B1, “Sulindac derivatives” (KING SAUD UNIVERSITY, priority 2018, dated 2019).

What was measured:
[1] = DPPH free radical scavenging (antioxidant activity); details: 100 μg/mL compound in 3 mL 0.004% DPPH, 520 nm after 30 min; mean of three replicates ±SD
Method: The antioxidant activity was measured based on the scavenging activity of the stable DPPH free radical. 100 μg/mL of the twenty-five sulindac derivative compounds were added to 3 mL 0.004% DPPH solution. Methanol was added to 3 mL 0.004% DPPH solution for the control sample. Absorbance was determined at 520 nm after 30 min. Butylated hydroxytoluene (BHT) was used as a reference drug. The percent inhibition was calculated by the equation:
[formula] where At is the absorbance of the compound and A0 is the absorbance of the control.

SMILES	melting point [°C]	Scavenging Effect [1] [%]
Cc1cc(C(C)(C)C)c(O)c(C(C)(C)C)c1 [BHT, Butylated hydroxytoluene, reference compound]		90.6 ± 3.83
CC1=C(CC(=O)N/N=C\c2cccc(O)c2)c2cc(F)ccc2/C1=C\c1ccc([S+](C)[O-])cc1 (stereo not drawn) [Compound 5]		42.20 ± 13.20
COc1cccc(/C=N\NC(=O)CC2=C(C)/C(=C/c3ccc([S+](C)[O-])cc3)c3ccc(F)cc32)c1 (stereo not drawn) [Compound 6]		71.03 ± 5.31
COc1cc(OC)c(OC)cc1/C=N\NC(=O)CC1=C(C)/C(=C/c2ccc([S+](C)[O-])cc2)c2ccc(F)cc21 (stereo not drawn) [Compound 9]	233 to 235	78.97 ± 9.36
COc1cc(/C=N\NC(=O)CC2=C(C)/C(=C/c3ccc([S+](C)[O-])cc3)c3ccc(F)cc32)cc(OC)c1OC (stereo not drawn) [Compound 10, N′-(3,4,5-trimethoxybenzylidene)-2-((1Z)-1-(4-(methylsulfinyl)benzylidene)-5-fluoro-2-methyl-1H-inden-3-yl)acetohydrazide]	165 to 167	42.33 ± 18.38
CC1=C(CC(=O)N/N=C\c2ccc(O)cc2)c2cc(F)ccc2/C1=C\c1ccc([S+](C)[O-])cc1 (stereo not drawn) [Compound 11, N′-(4-hydroxybenzylidene)-2-((1Z)-1-(4-(methylsulfinyl)benzylidene)-5-fluoro-2-methyl-1H-inden-3-yl)acetohydrazide]		45.06 ± 22.57
COc1ccccc1/C=N\NC(=O)CC1=C(C)/C(=C/c2ccc([S+](C)[O-])cc2)c2ccc(F)cc21 (stereo not drawn) [Compound 12, N′-(2-methoxybenzylidene)-2-((1Z)-1-(4-(methylsulfinyl)benzylidene)-5-fluoro-2-methyl-1H-inden-3-yl) acetohydrazide]		39.73 ± 15.65
COc1cc(OC)c(/C=N\NC(=O)CC2=C(C)/C(=C/c3ccc([S+](C)[O-])cc3)c3ccc(F)cc32)c(OC)c1 (stereo not drawn) [Compound 16, N′-(2,4,6-timethoxybenzylidene)-2-((1Z)-1-(4-(methylsulfinyl)benzylidene)-5-fluoro-2-methyl-1H-inden-3-yl)acetohydrazide]	193 to 195	30.80 ± 2.50
COc1ccc(/C=N\NC(=O)CC2=C(C)/C(=C/c3ccc([S+](C)[O-])cc3)c3ccc(F)cc32)c(OC)c1OC (stereo not drawn) [Compound 17, N′-(2,3,4-timethoxybenzylidene)-2-((1Z)-1-(4-(methylsulfinyl)benzylidene)-5-fluoro-2-methyl-1H-inden-3-yl)acetohydrazide]	185 to 187	63.56 ± 0.47
CCOc1ccc(/C=N\NC(=O)CC2=C(C)/C(=C/c3ccc([S+](C)[O-])cc3)c3ccc(F)cc32)cc1OC (stereo not drawn) [Compound 18, N′-(3-methoxy-4-ethoxybenzylidene)-2-((1Z)-1-(4-(methylsulfinyl)benzylidene)-5-fluoro-2-methyl-1H-inden-3-yl)acetohydrazide]	158 to 160	
COc1cc(/C=N\NC(=O)CC2=C(C)/C(=C/c3ccc([S+](C)[O-])cc3)c3ccc(F)cc32)cc(OC)c1O (stereo not drawn) [Compound 19, N′-(3,5-dimethoxy-4-hydroxybenzylidene)-2-((1Z)-1-(4-(methylsulfinyl)benzylidene)-5-fluoro-2-methyl-1H-inden-3-yl)acetohydrazide]	218 to 220	
CC1=C(CC(=O)N/N=C\c2cccc(O)c2O)c2cc(F)ccc2/C1=C\c1ccc([S+](C)[O-])cc1 (stereo not drawn) [Compound 23, N′-(2,3-dihydroxybenzylidene)-2-((1Z)-1-(4-(methylsulfinyl)benzylidene)-5-fluoro-2-methyl-1H-inden-3-yl)acetohydrazide]		33.10 ± 8.41

Continued, in another order:

melting point [°C]	SMILES	Scavenging Effect [1] [%]
148 to 150	CC1=C(CC(=O)N/N=C\c2ccccc2[N+](=O)[O-])c2cc(F)ccc2/C1=C\c1ccc([S+](C)[O-])cc1 (stereo not drawn) [Compound 1, N′-(2-nitrobenzylidene)-2-((1Z)-1-(4-(methylsulfinyl)benzylidene)-5-fluoro-2-methyl-1H-inden-3-yl)acetohydrazide]	18.53 ± 4.86
220 to 222	CC1=C(CC(=O)N/N=C\c2ccc([N+](=O)[O-])cc2)c2cc(F)ccc2/C1=C\c1ccc([S+](C)[O-])cc1 (stereo not drawn) [Compound 2, N′-(4-nitrobenzylidene)-2-((1Z)-1-(4-(methylsulfinyl)benzylidene)-5-fluoro-2-methyl-1H-inden-3-yl)acetohydrazide]	19.26 ± 5.32
138 to 140	CC1=C(CC(=O)N/N=C\c2ccccc2)c2cc(F)ccc2/C1=C\c1ccc([S+](C)[O-])cc1 (stereo not drawn) [Compound 3]	67.40 ± 9.25
228 to 230	CC1=C(CC(=O)N/N=C\c2ccc(Cl)cc2)c2cc(F)ccc2/C1=C\c1ccc([S+](C)[O-])cc1 (stereo not drawn) [Compound 4, N′-(4-chlorobenzylidene)-2-((1Z)-1-(4-(methylsulfinyl)benzylidene)-5-fluoro-2-methyl-1H-inden-3-yl)acetohydrazide]	39.86 ± 10.80
165 to 167	CC1=C(CC(=O)N/N=C\c2cccc([N+](=O)[O-])c2)c2cc(F)ccc2/C1=C\c1ccc([S+](C)[O-])cc1 (stereo not drawn) [Compound 7]	49.36 ± 5.57
185 to 187	COc1ccc(/C=N\NC(=O)CC2=C(C)/C(=C/c3ccc([S+](C)[O-])cc3)c3ccc(F)cc32)c(OC)c1 (stereo not drawn) [Compound 13, N′-(2,4-dimethoxybenzylidene)-2-((1Z)-1-(4-(methylsulfinyl)benzylidene)-5-fluoro-2-methyl-1H-inden-3-yl)acetohydrazide]	23.07 ± 6.95
203 to 205	COc1cccc(/C=N\NC(=O)CC2=C(C)/C(=C/c3ccc([S+](C)[O-])cc3)c3ccc(F)cc32)c1OC (stereo not drawn) [Compound 14, N′-(2,3-dimethoxybenzylidene)-2-((1Z)-1-(4-(methylsulfinyl)benzylidene)-5-fluoro-2-methyl-1H-inden-3-yl)acetohydrazide]	62.93 ± 6.72
230 to 232	COc1ccc(/C=N\NC(=O)CC2=C(C)/C(=C/c3ccc([S+](C)[O-])cc3)c3ccc(F)cc32)cc1OC (stereo not drawn) [Compound 15, N′-(3,4-dimethoxybenzylidene)-2-((1Z)-1-(4-(methylsulfinyl)benzylidene)-5-fluoro-2-methyl-1H-inden-3-yl)acetohydrazide]	40.60 ± 14.40
193 to 195	CCOc1cc(/C=N\NC(=O)CC2=C(C)/C(=C/c3ccc([S+](C)[O-])cc3)c3ccc(F)cc32)ccc1O (stereo not drawn) [Compound 20, N′-(3-ethoxy-4-hydroxybenzylidene)-2-((1Z)-1-(4-(methylsulfinyl)benzylidene)-5-fluoro-2-methyl-1H-inden-3-yl)acetohydrazide]	35.50 ± 9.05
180 to 182	CC1=C(CC(=O)N/N=C\c2cc(O)ccc2O)c2cc(F)ccc2/C1=C\c1ccc([S+](C)[O-])cc1 (stereo not drawn) [Compound 21, N′-(2,5-dihydroxybenzylidene)-2-((1Z)-1-(4-(methylsulfinyl)benzylidene)-5-fluoro-2-methyl-1H-inden-3-yl)acetohydrazide]	38.10 ± 10.92
208 to 210	COc1ccc(/C=N\NC(=O)CC2=C(C)/C(=C/c3ccc([S+](C)[O-])cc3)c3ccc(F)cc32)cc1O (stereo not drawn) [Compound 22, N′-(3-hydroxy-4-methoxybenzylidene)-2-((1Z)-1-(4-(methylsulfinyl)benzylidene)-5-fluoro-2-methyl-1H-inden-3-yl)acetohydrazide]	51.40 ± 16.66
210 to 212	COc1cccc(/C=N\NC(=O)CC2=C(C)/C(=C/c3ccc([S+](C)[O-])cc3)c3ccc(F)cc32)c1O (stereo not drawn) [Compound 24]	27.66 ± 2.12
195 to 197	CC1=C(CC(=O)N/N=C\c2ccc(O)c(O)c2O)c2cc(F)ccc2/C1=C\c1ccc([S+](C)[O-])cc1 (stereo not drawn) [Compound 25, N′-(2,3,4-trihydroxybenzylidene)-2-((1Z)-1-(4-(methylsulfinyl)benzylidene)-5-fluoro-2-methyl-1H-inden-3-yl)acetohydrazide]	30.06 ± 3.30
